{"source": "paper PMC8248988", "about": "“A signal capture and proofreading mechanism for the KDEL-receptor explains selectivity and dynamic range in ER retrieval” (eLife, 2021)", "key": {"human KDELR1 E117Q": {"molecular_target": "T1, human KDELR1 E117Q (Homo sapiens, UniProt P24390, E117Q)", "T1 construct": "expressed in transfected cells; host or cells: COS-7", "T1 sequence (P24390 whole entry E117Q)": "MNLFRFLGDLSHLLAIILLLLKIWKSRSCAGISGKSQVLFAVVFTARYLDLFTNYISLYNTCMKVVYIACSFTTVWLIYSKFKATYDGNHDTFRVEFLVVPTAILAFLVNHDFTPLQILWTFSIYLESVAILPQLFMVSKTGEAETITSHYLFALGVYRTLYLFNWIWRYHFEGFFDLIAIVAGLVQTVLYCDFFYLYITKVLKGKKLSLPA", "assay": "ER retrieval assay, KDELR1 E117Q-GFP", "type": "cell-based", "settings": "COS-7 cells", "text": "(§1) To create KDELR1-GFP and KDELR2-GFP, the reading frames for Homo sapiens KDELR1 (Uniprot: P24390) and KDELR2 (Uniprot: P33947) were cloned into the pEF5/FRT low level mammalian expression vector with a C-terminal 20 amino acid linker made up of 5 copies of Gly-Ser-Ser-Ser followed by GFP. Specific point mutations were introduced using the Quickchange protocol (Stratagene) and are described in the key resources table and figures. To create the mScarlet-KDEL^sec ligand construct, mScarlet with an N-terminal hGH signal peptide and the 16 C-terminal residues of human BiP at its C-terminus, containing the KDEL signal, was cloned into the pcDNA3.1 vector. […] The Golgi marker protein TGN46 was detected by antibody (sheep anti-TGN46 AHP500G; AbD Serotec) and an Alexa 647 conjugated secondary anti-sheep secondary (A-21448, Invitrogen). In Figure 1d and e, endogenous KDELR was detected by antibody (mouse anti-KDELR ADI-VAA-PT048; Enzo Life Sciences) and Alexa 488 conjugated anti-mouse secondary antibody (A-21202, Invitrogen). For retrieval assays in other figures, KDELR-GFP fusion proteins were directly detected by fluorescence. The mScarlet-xDEL fusion proteins were directly detected by fluorescence. […] The fraction of KDEL receptor in the Golgi apparatus was calculated by dividing the Golgi signal by the total cell signal. […]"}, "human KDELR1 D50N/N54K": {"molecular_target": "T2, human KDELR1 D50N/N54K (Homo sapiens, UniProt P24390, D50N/N54K)", "T2 construct": "expressed in transfected cells; host or cells: COS-7", "T2 sequence (P24390 whole entry D50N/N54K)": "as the sequence (P24390 whole entry E117Q) above, with D50N, N54K, Q117E counted along it", "assay": "ER retrieval assay, KDELR1 D50N/N54K-GFP", "type": "cell-based", "settings": "COS-7 cells", "text": "as §1"}}}
{"substance": "ADEL [pcDNA3.1 hGHss-mScarlet-H. sapiens BiP639-654K651A (ADEL^SEC), secreted mScarlet fusion with human BiP C-terminus, ADEL signal]", "values": [{"measurement": "ligand-induced receptor retrieval to the ER (in words)", "setting": "human KDELR1 E117Q", "result": "move to the ER"}, {"measurement": "ligand-induced receptor retrieval to the ER (in words)", "setting": "human KDELR1 D50N/N54K", "result": "gave a response"}]}
